Reference: US20200354327A1, “COMPOUND HAVING STAT3 INHIBITORY ACTIVITY AND USE THEREOF” (CYTUS H&B CO., LTD., priority 2017, published 2020)

Each compound was assayed against STAT3 (Homo sapiens, UniProt P40763) (assay: Western blot of the 46 Table 1 compounds in Hodgkin lymphoma cell lines L540 and HDLM-2). Details: L540 and HDLM-2.
STAT3, sequence (P40763 whole entry): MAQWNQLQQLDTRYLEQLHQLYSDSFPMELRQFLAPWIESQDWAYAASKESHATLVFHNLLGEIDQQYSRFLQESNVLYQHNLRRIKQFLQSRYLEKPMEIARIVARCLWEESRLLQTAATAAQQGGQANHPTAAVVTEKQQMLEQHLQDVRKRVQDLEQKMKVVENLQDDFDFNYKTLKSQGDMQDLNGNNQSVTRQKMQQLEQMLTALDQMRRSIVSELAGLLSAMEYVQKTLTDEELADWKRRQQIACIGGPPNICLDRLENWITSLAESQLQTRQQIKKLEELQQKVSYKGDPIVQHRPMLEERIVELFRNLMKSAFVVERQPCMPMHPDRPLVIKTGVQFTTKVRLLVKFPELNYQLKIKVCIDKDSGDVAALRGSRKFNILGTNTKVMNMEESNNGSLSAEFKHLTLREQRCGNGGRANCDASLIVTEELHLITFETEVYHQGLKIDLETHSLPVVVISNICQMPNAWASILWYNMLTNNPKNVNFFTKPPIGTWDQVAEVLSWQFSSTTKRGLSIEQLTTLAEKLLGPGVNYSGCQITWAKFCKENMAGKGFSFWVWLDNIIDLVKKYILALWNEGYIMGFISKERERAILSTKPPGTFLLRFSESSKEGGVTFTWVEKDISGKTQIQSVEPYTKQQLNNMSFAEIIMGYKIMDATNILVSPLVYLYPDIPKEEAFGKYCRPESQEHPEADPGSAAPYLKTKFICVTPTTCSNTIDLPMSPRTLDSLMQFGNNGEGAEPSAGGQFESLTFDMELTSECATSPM
Assay type: cell-based
Set-up: endogenous in cells; host or cells: L540, HDLM-2, U87-MG, MDA-MB-231, further human glioblastoma and breast cancer lines
Procedure: The human cancer cell lines used in the experiment were U87-MG (human malignant glioblastoma) and MDA-MB-231 (human malignant breast cancer) cell lines, and various kinds of human-derived blood and solid cancer cells including these human cancer cell lines were cultured as previously described (Jung J E, et al. FASEB J. 19, 1296-1298 (2005)). The human Hodgkin lymphoma cancer cell lines L540 and HLDM-2 used in the experiment were obtained from the German Collection of Microorganism and Cell Cultures (DSMZ, Germany) and cultured using RPMI 1640 medium containing 20% FBS in a 5% CO2 incubator at a temperature of 37° C.
Western blot analysis was performed (Jung J E, et al. FASEB J. 19, 1296-1298 (2005)). The cells were washed two times with PBS and suspended in the lysate (50 mM Tris-HCl, pH 7.4, 350 mM NaCl, 1% Triton X-100, 0.5% Nonidet P-40, 10% glycerol, 0.1% SDS, 1 mM EDTA, 1 mM EGTA, 1 mM Na3VO4, 1 mM PMSF, protease and phosphorylation inhibitor) and the cell membrane and nuclear membrane were crushed to lyse the cells. The insoluble protein fraction was removed by centrifugation, and the supernatant was mixed with SDS electrophoresis buffer and electrophoresis (SDS-PAGE) was performed to detect the protein with the desired antibody and to confirm the protein expression level.
`Cl.Cl.NCCc1nc2ccccc2c(=O)[nH]1.O` [compound 1, 2-(2-aminoethyl)-4(3H)-quinazolinone dihydrochloride hydrate] was tested, and the “STAT3 inhibitory efficacy, first screening” value was “judged to exert superior STAT3 inhibitory efficacy”. `O=S(=O)(NCCc1nc2ccccc2[nH]1)c1ccccc1` [compound 4, N-[2-(lH-benzimidazol-2-yl)ethyl]benzenesulfonamide] was tested, and the “STAT3 inhibitory efficacy, first screening” value was “judged to exert superior STAT3 inhibitory efficacy”. With `O=C1NCSC1=Cc1ccccc1O` [compound 5, 5-(2-hydroxybenzylidene)-l,3-thiazolidin-4-one] the “STAT3 inhibitory efficacy, first screening” value was “judged to exert superior STAT3 inhibitory efficacy”. For `O=S(=O)(NCc1nc2ccccc2[nH]1)c1ccccc1` [compound 6, N-(1H-benzimidazol-2-ylmethyl)benzenesulfonamide], the “STAT3 inhibitory efficacy, first screening” value was “judged to exert superior STAT3 inhibitory efficacy”. `O=C(O)C1Cc2c([nH]c3ccccc23)C(c2ccc(O)cc2)N1` (stereo not drawn) [compound 8, l-(4-hydroxyphenyl)-2,3,4,9-tetrahydro-lH-beta-carboline-3-carboxylic acid] was tested, and the “STAT3 inhibitory efficacy, first screening” value was “judged to exert superior STAT3 inhibitory efficacy”. `O=C(Nc1nc(O)nc(C=Cc2ccccc2)n1)NS(=O)(=O)c1ccccc1Cl` [compound 9, 2-chloro-N-({[4-hydroxy-6-(2-phenylvinyl)-l,3,5-triazin-2-yl]amino]carbonyl)benzenesulfonamide] was tested, and the “STAT3 inhibitory efficacy, first screening” value was “judged to exert superior STAT3 inhibitory efficacy”. `O=C(O)c1cccc(NS(=O)(=O)c2cccc(C(F)(F)F)c2)c1` [compound 11, 3-({[3-(trifluoromethyl)phenyl]sulfonyl}amino)benzoic acid] was tested, and the “STAT3 inhibitory efficacy, first screening” value was “judged to exert superior STAT3 inhibitory efficacy”. For `O=S(=O)(NCc1nc2ccccc2[nH]1)c1ccc(Cl)cc1` [compound 14, N-(1H-benzimidazol-2-ylmethyl)-4-chlorobenzenesulfonamide], the “STAT3 inhibitory efficacy, first screening” value was “judged to exert superior STAT3 inhibitory efficacy”. In the case of `CC1CN(Cc2nc3c([nH]2)c(=O)[nH]c(=O)n3C)CC(C)O1` (stereo not drawn) [compound 16, 8-[(2,6-dimethyl-4-morpholinyl)methyl]-3-methyl-3,7-dihydro-lH-purine-2,6-dione], the “STAT3 inhibitory efficacy, first screening” value is reported as “judged to exert superior STAT3 inhibitory efficacy”. With `CC(CNCc1nc2ccccc2[nH]1)c1ccccc1` (stereo not drawn) [compound 18, (1H-benzimidazol-2-ylmethyl)(2-phenylpropyl)amine] the “STAT3 inhibitory efficacy, first screening” value was “judged to exert superior STAT3 inhibitory efficacy”. `CCS(=O)(=O)Nc1cccc(C2=NN(S(C)(=O)=O)C(c3cccc(F)c3)C2)c1` (stereo not drawn) [compound 19, N-{3-[5-(3-fluorophenyl)-l-(methylsulfonyl)-4,5-dihydro-lH-pyrazol-3-yl]phenyl}ethanesulfonamide] was tested, and the “STAT3 inhibitory efficacy, first screening” value was “judged to exert superior STAT3 inhibitory efficacy”. `O=S(=O)(NCc1nc2ccccc2[nH]1)c1ccc(Cl)c(Cl)c1` [compound 20, N-(lH-benzimidazol-2-ylmethyl)-3,4-dichlorobenzenesulfonamide] was tested, and the “STAT3 inhibitory efficacy, first screening” value was “judged to exert superior STAT3 inhibitory efficacy”. `O=C(Nc1ccc(C(=O)N2CCNC2=O)cc1)c1cccs1` [compound 21, N-{4-[(2-oxo-l-imidazolidinyl)carbonyl]phenyl}-2-thiophenecarboxamide] was tested, and the “STAT3 inhibitory efficacy, first screening” value was “judged to exert superior STAT3 inhibitory efficacy”. For `O=C(Nc1ccc(C(=O)N2CCNC2=O)cc1)c1ccccc1` [compound 22, N-{4-[(2-oxo-l-imidazolidinyl)carbonyl]phenyl}benzamide], the “STAT3 inhibitory efficacy, first screening” value was “judged to exert superior STAT3 inhibitory efficacy”. `O=C(COc1ccc(Cl)cc1S(=O)(=O)NC1CC1)N1CCOCC1` [compound 23, 5-chloro-N-cyclopropyl-2-[2-(4-morpholinyl)-2-oxoethoxy]benzenesulfonamide] was tested, and the “STAT3 inhibitory efficacy, first screening” value was “judged to exert superior STAT3 inhibitory efficacy”. With `NC(=O)c1cc(S(=O)(=O)Nc2ccc(O)cc2)cs1` [compound 24, 4-{[(4-hydroxyphenyl)amino]sulfonyl}-2-thiophenecarboxamide] the “STAT3 inhibitory efficacy, first screening” value was “judged to exert superior STAT3 inhibitory efficacy”. `O=C1CN(C(=O)C=Cc2ccccc2)CCN1` [compound 27, 4-cinnamoyl-2-piperazinone] was tested, and the “STAT3 inhibitory efficacy, first screening” value was “judged to exert superior STAT3 inhibitory efficacy”. For `Cc1ccccc1NC(=O)c1cccc(NS(C)(=O)=O)c1` [compound 28, N-(2-methylphenyl)-3-((methylsulfonyl)amino]benzamide], the “STAT3 inhibitory efficacy, first screening” value was “judged to exert superior STAT3 inhibitory efficacy”. For `O=C(Nc1ccc(F)cc1)Nc1cccc(C(=O)NCc2ccccc2)c1` [compound 29, N-benzyl-3-({[(4-fluorophenyl)amino]carbonyl}amino)benzamide], the “STAT3 inhibitory efficacy, first screening” value was “judged to exert superior STAT3 inhibitory efficacy”. With `CC(C)(C)NC(=O)c1cccc(NC(=O)Nc2ccccc2)c1` [compound 30, 3-[(anilinocarbonyl)amino]-N-(tert-butyl)benzamide] the “STAT3 inhibitory efficacy, first screening” value was “judged to exert superior STAT3 inhibitory efficacy”. `Cc1ccc(S(=O)(=O)NCCc2nc3ccccc3[nH]2)cc1` [compound 31, N-[2-(1H-benzimidazol-2-yl)ethyl]-4-methylbenzenesulfonamide] was tested, and the “STAT3 inhibitory efficacy, first screening” value was “judged to exert superior STAT3 inhibitory efficacy”. For `Cc1ccc(S(=O)(=O)NCc2nc3ccccc3[nH]2)cc1` [compound 32, N-(1H-benzimidazol-2-ylmethyl)-4-methylbenzenesulfonamide], the “STAT3 inhibitory efficacy, first screening” value was “judged to exert superior STAT3 inhibitory efficacy”. With `CS(=O)(=O)Nc1cccc(C(=O)NCc2ccncc2)c1` [compound 33, 3-[(methylsulfonyl)amino]-N-(4-pyridinylmethyl)benzamide] the “STAT3 inhibitory efficacy, first screening” value was “judged to exert superior STAT3 inhibitory efficacy”. For `Brc1cc2c(cc1CSc1nc3cccnc3[nH]1)OCO2` [compound 34, 2-{[(6-bromo-l,3-benzodioxol-5-yl)methyl]thio}-3H-imidazo[4,5-b]pyridine], the “STAT3 inhibitory efficacy, first screening” value was “judged to exert superior STAT3 inhibitory efficacy”. In the case of `O=C(O)[C@@H]1CCCN1S(=O)(=O)c1ccc2[nH]c(=O)c(=O)[nH]c2c1` [compound 35, l-[(2,3-dioxo-l,2,3,4-tetrahydro-6-quinoxalinyl)sulfonyl]proline], the “STAT3 inhibitory efficacy, first screening” value is reported as “judged to exert superior STAT3 inhibitory efficacy”. With `CCc1ccc(OC)c(S(=O)(=O)Nc2cccc(O)c2)c1` [compound 36, 5-ethyl-N-(3-hydroxyphenyl)-2-methoxybenzenesulfonamide] the “STAT3 inhibitory efficacy, first screening” value was “judged to exert superior STAT3 inhibitory efficacy”. For `OCCCNc1nc(Nc2cccc(O)c2)nc2ccccc12` [compound 37, 3-({4-[(3-hydroxypropyl)amino]-2-quinazolinyl}amino)phenol], the “STAT3 inhibitory efficacy, first screening” value was “judged to exert superior STAT3 inhibitory efficacy”. In the case of `O=C(Nc1ccc(Cc2ccc(NC(=O)C(c3ccccc3)c3ccccc3)c(O)c2)cc1O)C(c1ccccc1)c1ccccc1` [compound 38, N,N′-[methylenebis(2-hydroxy-4,1-phenylene)]bis(2,2-diphenylacetamide)], the “STAT3 inhibitory efficacy, first screening” value is reported as “judged to exert superior STAT3 inhibitory efficacy”.

Same assay, conditions: L540 and HDLM-2, 50 μM
For `OCCCNc1nc(Nc2cccc(O)c2)nc2ccccc12` [compound 37, 3-({4-[(3-hydroxypropyl)amino]-2-quinazolinyl}amino)phenol], the “STAT3 inhibitory efficacy, secondary screening” value was “judged to exert superior STAT3 inhibitory efficacy”.

Same assay, conditions: L540 and HDLM-2, various concentrations
In the case of `OCCCNc1nc(Nc2cccc(O)c2)nc2ccccc12` [compound 37, 3-({4-[(3-hydroxypropyl)amino]-2-quinazolinyl}amino)phenol], the “phosphorylation of STAT tyrosine 705” value is reported as “significantly inhibited the phosphorylation of STATdml tyrosine 705 in a concentration-dependent manner”.
